Assay [1] deals with prostate cancer with node metastases and invasion of the bladder floor. The assay is described as follows: Clinical observation: patient with prostate cancer, tumor markers PSA and CEA. It counts as in vivo, human. The arrangement: PSA: unit not given beside the values. The source says:
The patient is an individual diagnosed with prostate cancer with node metastases and invasion of the bladder floor. […] In March 2003, PSA level was 1096, the carcinoembryonic antigen was 6.85.
Carcinoembryonic antigen is a substance that usually only appears during fetal development and reappears again in adults who develop certain types of cancer: colon, rectum, stomach, esophagus, liver, pancreas, bladder, and breast (female mammary gland), lung and prostate as well.
The test of carcinoembryonic antigen (CEA) plays an important role in monitoring patient outcomes with cancer and metastasis. Even though it can not be considered a final marker, it serves as a useful guide. Its constant increase means that therapy has not achieved positive results. A decrease indicates a trend towards regression of the lesion.
The patient starts with a daily dose of 250 mg of Flutamide (fluxus) until reaching a PSA of 252. After 4 months, PSA reaches 525. From this point, the patient receives a double dose of Flutamide until registering a PSA of 256. CEA level was 5.84. After three months PSA rises again to 580. The tumor becomes resistant to hormone therapy. […] At first, PSA level was 600 and CEA level was 8.86. […] CEA level has dropped to 6.51. PSA level has changed to 700, a much better value if compared to the resistance to flutamide.
The patient underwent surgery to improve the diameter of the urethra and to remove the catheter that started to produce frequent bleeding. After the surgery, the patient suffered a massive infection due to Escherichia coli bacteria. They received anti-bacterial treatment with good results. PSA reached 698. After the surgery, the administration of the composition of the invention re-started, and after 2 months, PSA dropped to 88 and CEA to 5.04. During the following 2 months, PSA level reached 10 ng/ml level. After 70 days, PSA registers 4 ng/ml levels, which are considered normal values. CEA level was 3.97. Currently, the patient has returned to work (August, 2005). They had also had dialysis due to complications during the surgery. The patient has been taking the composition in daily basis during the next two years, maintaining a good health condition. Despite the three dialysis sessions per week that they are receiving, […] general state is good; they manage to do everything by themself and exercises every morning; PSA is 15 but CEA has always been 2.5 ng/ml. During these two years (March, 2007), they have kept a strict diet and has not received any other type of anti-tumor therapy.

Another assay concerns S. aureus. Nature of the assay: Microbiological test for bactericidal properties (inhibition halo), S. aureus. It counts as cell-based, Staphylococcus aureus. As to conditions: Gentamicin 2 μg/ml. The text has this: Microbiological Tests to Determine Bactericidal Properties of the Aqueous and Ethanolic Extracts of the Composition of the Invention:
The inhibitory halo of FT001 registered a diameter of approximately 12 mm.

With `CC(C)C(=O)Nc1ccc([N+](=O)[O-])c(C(F)(F)F)c1` [Flutamide], the PSA in assay [1] (250 mg Flutamide daily, after 4 months) stood at 525; in assay [1] (daily dose of 250 mg Flutamide, start PSA 1096) it was 252; in assay [1] (double dose of Flutamide), 256; in assay [1] (double dose of Flutamide, after three months, PSA rises again), 580. Also, the CEA level in assay [1] (double dose of Flutamide) is 5.84.
For Gentamicin, the “halo of the lower standard” value in the assay on S. aureus was 12.2 mm.

Source of the values: US8715747B2, “Biocomposition stimulant of the immune system, anti-tumor and anti-HIV” (Pharmabrand S.A., priority 2007, dated 2014).
